Results reported in US12516053B2, “Bcl-2 inhibitors” (BEIGENE, LTD., priority 2019, dated 2026).
Where two headings read alike, the source gives them in different places.

Key:
[1] = tested on: Molt-4 (Bcl-xL-dependent ALL cell line); experiment: Molt-4 cell proliferation assay; assay type: cell-based; settings: Homo sapiens, MOLT-4; CellTiter-GLO; read-out: Cellular proliferation assay (IC50, nM) Molt-4
Excerpt: Molt-4 Cell Proliferation Assay:
Each compound was serially diluted with 10 1M as the maximum concentration. The anti-proliferative IC50s of these compounds were similarly determined as a percentage of viable cells upon treatment compared to the untreated control using CellTiter-GLO luminescent assay.

[2] = tested on: RS4;11 (BCL-2 dependent acute lymphoblastic leukemia cell line); experiment: RS4;11 cell proliferation assay; assay type: cell-based; settings: CellTiter-GLO, read-out: Cellular proliferation assay (IC50, nM) RS4
Description: RS4;11 Cell Proliferation Assay:
Each compound was serially diluted with 1 μM as the maximum concentration. To test the apoptotic effect of the compounds, the cells were seeded at 50,000 in 180 μl per well in 96-well plates and treated with 10-point dilution series of each compound for 48 hrs at 37° C. Cell viability was assessed after the treatment using CellTiter-GLO luminescent assay (Promega) according to the manufacturer's recommendations. Briefly, 30 μl of CellTiter-GLO reagent was added into 200 μl of cell culture, Mixture was agitated on an orbital shaker for 5 mins to ensure cell lysis followed by 7 mins incubation at room temperature to allow development and stabilization of luminescent signals, which corresponded to quantity of ATP and thus the quantity of metabolically active cells. Luminescent signals were measured using PHERAstar FS reader (BMG). Mean IC50 values for cell viability were determined with GraphPad Prism software.

[3] = molecular target: recombinant human Bcl-2-G101V protein (Homo sapiens, UniProt P10415, G101V); experiment: Bcl-2-G101V TR-FRET assay; assay type: binding
Excerpt: The IC50 for each compound was derived from fitting the data to the four-parameter logistic equation by Graphpad Prism software or Dotmatics.

[4] = molecular target: Recombinant human Bcl-2 protein (Homo sapiens, UniProt P10415); experiment: Bcl-2 TR-FRET assay; assay type: binding
Description: Compounds disclosed herein were tested for blocking of Bcl-2 protein with its ligand in an assay based on Time-Resolved Fluorescence Resonance Energy Transfer (TR-FRET) methodology. Recombinant human 0.05 nM Bcl-2 protein was pre-incubated with a serial dilution of compounds disclosed herein (top final concentration is 1 uM or 0.1 uM or 0.02 uM or 0.01 uM, 10 points) at room temperature for 0.5 hour in an assay buffer containing 20 mM potassium phosphate buffer, pH 7.5, 50 mM NaCl, 1 mM EDTA, 0.05% Tween-20, 0.01% BSA. […] The inhibition percentage of Bcl-2 interaction with its ligand in presence of increasing concentrations of compounds was calculated based on the TR-FRET signals. The IC50 for each compound was derived from fitting the data to the four-parameter logistic equation by Graphpad Prism software or Dotmatics.

[5] = molecular target: BA/F3-BCL-2 G101V cells (Homo sapiens, UniProt P10415, G101V, cells depend on it); experiment: BA/F3 cell proliferation assay, Bcl-2 G101V; assay type: cell-based, Murine; settings: 24 hrs treatment, 3% FBS, CellTiter-Glo, geometric mean of 3 experiments; read-out: Cellular proliferation assay (IC50, nM) Bcl-2 G101V; BaF3 cell
Description: (§1) BA/F3 cell Proliferation Assay:
(§2) The cells were treated with a 10-point dilution series of compounds for 24 hrs. After the compound treatment, 30 μl of CellTiter-Glo reagent was added in each well. The effects on proliferation were determined using Cell TiterGlo reagent (Promega) according to the manufacturer's instructions. Luminescent signals were measured using PHERAstar FS plate reader (BMG Labtech). ICS50 values for cell viability were determined with GraphPad Prism software and were the geometric mean of 3 independent experiments.

[6] = molecular target: BA/F3-BCL-2 cells (Homo sapiens, UniProt P10415); experiment: BA/F3 cell proliferation assay, BCL-2 wild type; assay type: cell-based, Murine
Description: as §1, §2

[7] = Homo sapiens, RS4-11, 48 hrs treatment
[8] = TR-FRET, 0.1 nM Bcl-2-G101V, FITC labeled Bak peptide 5 nM, read-out: Biochemical assay (IC50, nM) Bcl-2 G101V
[9] = TR-FRET, 0.05 nM Bcl-2, FITC labeled Bak peptide 0.5 nM, read-out: Biochemical assay (IC50, nM) Bcl-2 WT
[10] = 24 hrs treatment, 3% FBS, CellTiter-Glo, geometric mean of 3 experiments; read-out: Cellular proliferation assay (IC50, nM) Bcl-2 WT; BaF3 cell

Row | IC50 [1] | IC50 [2, 7] | GI50 [5] | IC50 [3, 8] | IC50 [4, 9] | IC50 [6, 10] | IC50 ([2]; 48 hrs treatment) | SMILES | IC50 [3] | IC50 [4] | IC50 ([6]; read-out: Cellular proliferation assay (IC50, nM) Bcl-2 WT; BaF3 cell; 24 hrs treatment, 3% FBS, CellTiter-Glo, geometric mean of 3 experiments)
1 | 1420 nM | 0.58 nM | – | 1.2 nM | 0.018 nM | – | – | CC(C)c1ccccc1[C@@H]1CCCN1C1CC2(CCN(c3ccc(C(=O)NS(=O)(=O)c4ccc(NCC5(F)CCOCC5)c([N+](=O)[O-])c4)c(N4CCOc5nc6[nH]ccc6cc54)c3)CC2)C1 [Example B4, (S)-2-(2,3-dihydropyrrolo[3′,2′:5,6]pyrido[2,3-b][1,4]oxazin-1(6H)-yl)-N-((4-(((4-fluorotetrahydro-2H-pyran-4-yl)methyl)amino)-3-nitrophenyl)sulfonyl)-4-(2-(2-(2-isopropylphenyl)pyrrolidin-1-yl)-7-azaspiro[3,5]nonan-7-yl)benzamide] | – | – | –
2 | – | 1 nM | 8.9 nM | 1.1 nM | 0.025 nM | 0.13 nM | – | CC(C)c1ccccc1[C@@H]1CCCN1C1CC2(CCN(c3ccc(C(=O)NS(=O)(=O)c4ccc(NC[C@H]5CC[C@](C)(O)CC5)c([N+](=O)[O-])c4)c(N4C[C@@H](C)Oc5nc6[nH]ccc6cc54)c3)CC2)C1 [Example B5, N-((4-((((1r,4r)-4-hydroxy-4-methylcyclohexyl)methyl)amino)-3-nitrophenyl)sulfonyl)-4-(2-((S)-2-(2-isopropylphenyl)pyrrolidin-1-yl)-7-azaspiro[3,5]nonan-7-yl)-2-((R)-3-methyl-2,3-dihydropyrrolo[3′,2′:5,6]pyrido[2,3-b][1,4]oxazin-1(6H)-yl)benzamide] | – | – | –
3 | – | 0.34 nM | 31.9 nM | 1.2 nM | 0.027 nM | 1.1 nM | – | CC(C)c1ccccc1[C@@H]1CCCN1C1CC2(CCN(c3ccc(C(=O)NS(=O)(=O)c4ccc(NC[C@H]5CC[C@](C)(O)CC5)c([N+](=O)[O-])c4)c(N4C[C@H](C)Oc5nc6[nH]ccc6cc54)c3)CC2)C1 [Example B6, N-((4-((((1r,4r)-4-hydroxy-4-methylcyclohexyl)methyl)amino)-3-nitrophenyl)sulfonyl)-4-(2-((S)-2-(2-isopropylphenyl)pyrrolidin-1-yl)-7-azaspiro[3,5]nonan-7-yl)-2-((S)-3-methyl-2,3-dihydropyrrolo[3′,2′:5,6]pyrido[2,3-b][1,4]oxazin-1(6H)-yl)benzamide] | – | – | –
4 | – | 0.8 nM | 11.2 nM | 1.5 nM | 0.048 nM | 0.18 nM | – | CC(C)c1ccccc1[C@@H]1CCCN1C1CC2(CCN(c3ccc(C(=O)NS(=O)(=O)c4cc5c(c([N+](=O)[O-])c4)N[C@H](C[C@H]4CC[C@H](O)CC4)CO5)c(N4C[C@@H](C)Oc5nc6[nH]ccc6cc54)c3)CC2)C1 [Example B7, N—(((R)-3-(((1r,4R)-4-hydroxycyclohexyl)methyl)-5-nitro-3,4-dihydro-2H-benzo[b][1,4]oxazin-7-yl)sulfonyl)-4-(2-((S)-2-(2-isopropylphenyl)pyrrolidin-1-yl)-7-azaspiro[3,5]nonan-7-yl)-2-((R)-3-methyl-2,3-dihydropyrrolo[3′,2′:5,6]pyrido[2,3-b][1,4]oxazin-1(6H)-yl)benzamide] | – | – | –
5 | – | – | 41.2 nM | 3.3 nM | 0.055 nM | 0.65 nM | 0.7 nM | CC(C)c1ccccc1[C@@H]1CCCN1C1CC2(CCN(c3ccc(C(=O)NS(=O)(=O)c4cc5c(c([N+](=O)[O-])c4)N[C@H](CC4CCC(O)CC4)CO5)c(N4C[C@H](C)Oc5nc6[nH]ccc6cc54)c3)CC2)C1 (stereo partly drawn) [Example B8, N—(((R)-3-(((1r,4R)-4-hydroxycyclohexyl)methyl)-5-nitro-3,4-dihydro-2H-benzo[b][1,4]oxazin-7-yl)sulfonyl)-4-(2-((S)-2-(2-isopropylphenyl)pyrrolidin-1-yl)-7-azaspiro[3,5]nonan-7-yl)-2-((S)-3-methyl-2,3-dihydropyrrolo[3′,2′:5,6]pyrido[2,3-b][1,4]oxazin-1(6H)-yl)benzamide] | – | – | –
6 | > 10000 nM | 1 nM | – | 1.6 nM | 0.04 nM | – | – | CC(C)c1ccccc1[C@@H]1CCCN1C1CC2(CCN(c3ccc(C(=O)NS(=O)(=O)c4ccc(NC[C@H]5CC[C@](C)(O)CC5)c([N+](=O)[O-])c4)c(N4c5cc6cc[nH]c6nc5OCC4C)c3)CC2)C1 (stereo partly drawn) [Example B10, N-((4-((((1R,4R)-4-hydroxy-4-methylcyclohexyl)methyl)amino)-3-nitrophenyl)sulfonyl)-4-(2-((S)-2-(2-isopropylphenyl)pyrrolidin-1-yl)-7-azaspiro[3,5]nonan-7-yl)-2-(2-methyl-2,3-dihydropyrrolo[3′2′:5,6]pyrido[2,3-b][1,4]oxazin-1(6H)-yl)benzamide] | – | – | –

More lines, now with the values behind:

Row | SMILES | IC50 [1] | IC50 [2, 7] | GI50 [5] | IC50 [3, 8] | IC50 [4, 9] | IC50 [6, 10] | IC50 ([2]; 48 hrs treatment) | IC50 [3] | IC50 [4] | IC50 ([6]; read-out: Cellular proliferation assay (IC50, nM) Bcl-2 WT; BaF3 cell; 24 hrs treatment, 3% FBS, CellTiter-Glo, geometric mean of 3 experiments)
7 | CC1(C)CCC(CN2CCN(c3ccc(C(=O)NS(=O)(=O)c4ccc(NCC5CCOCC5)c([N+](=O)[O-])c4)c(Oc4cnc5[nH]ccc5c4)c3)CC2)=C(c2ccc(Cl)cc2)C1 [ABT-199, Venetoclax, reference compound] | 2570 nM | 4.2 nM | – | – | – | – | – | – | – | –
8 | [2H]C1([2H])CC2(CC(N3CCC[C@H]3c3ccccc3C(C)C)C2)CC([2H])([2H])N1c1ccc(C(=O)NS(=O)(=O)c2cc3c(c([N+](=O)[O-])c2)N[C@H](C[C@H]2CC[C@H](O)CC2)CO3)c(Oc2cnc3[nH]ccc3c2)c1 [Example A6, 2-((1H-pyrrolo[2,3-b]pyridin-5-yl)oxy)-N—(((R)-3-(((1r,4R)-4-hydroxycyclohexyl)methyl)-5-nitro-3,4-dihydro-2H-benzo[b][1,4]oxazin-7-yl)sulfonyl)-4-(2-((S)-2-(2-isopropylphenyl)pyrrolidin-1-yl)-7-azaspiro[3,5]nonan-7-yl-6,6,8,8-d4)benzamide] | – | 1.3 nM | 21.1 nM | – | – | – | – | 0.51 nM | 0.021 nM | 0.25 nM
9 | [2H]C1([2H])CCC([2H])(c2ccccc2C(C)C)N1C1CC2(CCN(c3ccc(C(=O)NS(=O)(=O)c4cc5c(c([N+](=O)[O-])c4)N[C@H](C[C@H]4CC[C@H](O)CC4)CO5)c(Oc4cnc5[nH]ccc5c4)c3)CC2)C1 (stereo partly drawn) [Example A7, 2-((1H-pyrrolo[2,3-b]pyridin-5-yl)oxy)-N—(((R)-3-(((1r,4R)-4-hydroxycyclohexyl)methyl)-5-nitro-3,4-dihydro-2H-benzo[b][1,4]oxazin-7-yl)sulfonyl)-4-(2-(2-(2-isopropylphenyl)pyrrolidin-1-yl-2,5,5-d3)-7-azaspiro[3,5]nonan-7-v)benzamide] | – | 1.5 nM | 35.8 nM | 0.92 nM | 0.021 nM | 0.38 nM | – | – | – | –
10 | CC(C)c1ccccc1[C@@H]1CCCN1C1CC2(CCN(c3ccc(C(=O)NS(=O)(=O)c4cc5c(c([N+](=O)[O-])c4)N[C@H](C[C@H]4CC[C@H](O)CC4)CO5)c(N4CCCOc5nc6[nH]ccc6cc54)c3)CC2)C1 [Example B9, 2-(3,4-dihydro-2H-pyrrolo[3′,2′:5,6]pyrido[2,3-b][1,4]oxazepin-1(7H)-yl)-N—(((R)-3-(((1R,4R)-4-hydroxycyclohexyl)methyl)-5-nitro-3,4-dihydro-2H-benzo[b][1,4]oxazin-7-yl)sulfonyl)-4-(2-((S)-2-(2-isopropylphenyl)pyrrolidin-1-yl)-7-azaspiro[3,5]nonan-7-yl)benzamide] | – | 0.5 nM | 34.9 nM | 3.3 nM | 0.038 nM | 0.83 nM | – | – | – | –
